We go through one compound from ChEMBL document CHEMBL4422633, “Antioxidant-Inspired Drug Discovery: Antitumor Metabolite Is Formed in Situ from a Hydroxycinnamic Acid Derivative upon Free-Radical Scavenging” (J Med Chem, 2019).

Series [1] has as its system HaCaT. Put plainly: Induction of apoptosis in human HaCaT cells assessed as necrotic cells at 40 nM after 24 hrs by Annexin V/propidium iodide-staining based flow cytometry (reference value: 1.88 +/- 0.02%). It is filed as cell-based. Conditions: 0.04 µM.
Series [2] relates to HaCaT. Put plainly: Cytotoxicity against human HaCaT cells assessed as reduction in cell viability after 72 hrs by MTT assay. Type of series: cell-based. A general note: Formazan colour is commonly taken as a measure of viable cells.
In series [3] the test system is NCI-H460. Put plainly: Induction of apoptosis in human NCI-H460 cells assessed as viable cells at 40 nM after 24 hrs by Annexin V/propidium iodide-staining based flow cytometry (reference value: 96.49 +/- 0.96%). Type of series: functional. Conditions: NCI-H460, 24 h, read-out: Activity. On the technique in general: In flow cytometry, cells or beads pass a laser one at a time.

The subject of series [4] is HaCaT. Put plainly: Induction of apoptosis in human HaCaT cells assessed as late apoptotic cells at 40 nM after 24 hrs by Annexin V/propidium iodide-staining based flow cytometry (reference value: 0.93 +/- 0.04%). Type of series: cell-based. Conditions: 0.04 µM.
The nature of series [5]: Cytotoxicity against mouse L5178B1 cells transfected with pHa MDR1/A retrovirus assessed as reduction in cell viability after 72 hrs by MTT assay. The settings on record: MDR1, 72 h. It is filed as functional, cell-based.
Series [6] can be described thus: Induction of apoptosis in human HaCaT cells assessed as viable cells at 40 nM after 24 hrs by Annexin V/propidium iodide-staining based flow cytometry (reference value: 95.63 +/- 3.83%). Conditions: read-out: Activity. Type of series: cell-based.
The subject of series [7] is NCI-H460. Put plainly: Cytotoxicity against human NCI-H460 cells assessed as reduction in cell viability after 72 hrs by MTT assay. It is filed as functional, cell-based. The settings on record: NCI-H460, 72 h.
Series [8] has as its system NCI-H460. Put plainly: Induction of apoptosis in human NCI-H460 cells assessed as early apoptotic cells at 40 nM after 24 hrs by Annexin V/propidium iodide-staining based flow cytometry (reference value: 0.45 +/- 0.01%). It is filed as functional.
Series [9] is described as follows: Cytotoxicity against mouse L5178 cells assessed as reduction in cell viability after 72 hrs by MTT assay. Type of series: functional, cell-based. The settings on record: L5178, 72 h.
Series [10] relates to NCI-H460. Put plainly: Induction of apoptosis in human NCI-H460 cells assessed as late apoptotic cells at 40 nM after 24 hrs by Annexin V/propidium iodide-staining based flow cytometry (reference value: 0.93 +/- 0.04%). It is filed as functional.
A short description of series [11]: Cytotoxicity against human NCI-H460/R cells transfected with MDR assessed as reduction in cell viability after 72 hrs by MTT assay. Type of series: functional, cell-based. The settings on record: NCI-H460, 72 h.
Another series deals with NCI-H661. Put plainly: Cytotoxicity against human NCI-H661 cells assessed as reduction in cell viability after 72 hrs by MTT assay. It is filed as functional, cell-based. The settings on record: NCI-H661, 72 h.
The test system of a further series is A549. Put plainly: Cytotoxicity against human A549 cells assessed as reduction in cell viability after 72 hrs by MTT assay. It is filed as functional, cell-based. Conditions: A549, 72 h.
Series [12] relates to HaCaT. Put plainly: Induction of apoptosis in human HaCaT cells assessed as early apoptotic cells at 40 nM after 24 hrs by Annexin V/propidium iodide-staining based flow cytometry (reference value: 0.23 +/- 0.01%). The settings on record: 0.04 µM. It is filed as cell-based.
In series [13] the test system is NCI-H460. Put plainly: Induction of apoptosis in human NCI-H460 cells assessed as necrotic cells at 40 nM after 24 hrs by Annexin V/propidium iodide-staining based flow cytometry (reference value: 2.13 +/- 0.02%). Type of series: functional.
A further series has as its system SiHa. Put plainly: Cytotoxicity against human SiHa cells assessed as reduction in cell viability after 72 hrs by MTT assay. Type of series: functional, cell-based.

The IC50 is the midpoint of a concentration-inhibition curve.

As for `COc1cccc2c1C(=O)c1c(O)c3c(c(O)c1C2=O)C[C@@](O)(C(=O)CO)C[C@@H]3O[C@H]1C[C@H](N)[C@H](O)[C@H](C)O1` [DOXORUBICIN], the Activity is 7.82% in the series with HaCaT [1]; 3.04% in the series on HaCaT [4]; 4.05% in the series with NCI-H460 [8]; 4.11% in the series on NCI-H460 [10]; 11.03% in the series with HaCaT [12]; 6.7% in the series with NCI-H460 [13]. For the same compound, the 50% inhibitory concentration (IC50) in the series with HaCaT [2] was 30 nM; in [5], 11.8 µM; in the series with NCI-H460 [7] it was 40 nM; in series [9], 410 nM; in series [11], 1890 nM; in the series with NCI-H661, 350 nM. The IC50 with A549 worked out at 550 nM; in the series on SiHa, 760 nM. The viability at 0.04 µM in the series on NCI-H460 [3] is 85.1%. Further, the viability at 24 h, 0.04 µM in series [6] turned out to be 78.1%.
